Reference: article PMC2914685 (Analytical biochemistry, 2010)
No end group written: not given here.

Experiments:
Abl SH3 domain [1] = molecular target: T1, Abl SH3 domain (Homo sapiens, UniProt P00519); test: Tetracycline repressor-based mammalian two-hybrid assay; assay type: cell-based; conditions: HEK 293 cells, 48 hours post-transfection, fluorescence microscopy, Figure 2
Abl SH3 domain [2] = molecular target: T1, Abl SH3 domain; conditions: computationally predicted from the human proteome; ref [30]; [31] (Personal communication); cited from earlier work
Abl SH3 domain (SH3-His) = test: Abl SH3 domain Western blot-type detection; assay type: binding, human; conditions: fluorescence under UV 365 nm, estimated, data not shown
SH3-His = SH3-His (human, UniProt P00519 61-121); test: fluorescence polarisation
Chain of SH3-His (P00519 61-121): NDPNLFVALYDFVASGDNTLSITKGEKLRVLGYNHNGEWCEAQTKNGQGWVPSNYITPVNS

T1 sequence (P00519 61-121 limits assumed): as the sequence (P00519 61-121) above

Molecule | interaction with Abl SH3 domain in vivo (AcGFP expression) (Abl SH3 domain [1]) | predicted binding to Abl SH3 domain (Abl SH3 domain [2]) | further results
TetR-BOT1: TetR with dimerization domain replaced with BOT1 (AAAMQKPSLP; also: insert only, fused into TetR protein) | does not bind to TetR-SH3 |  | 
AAAMQKPSLP [BOT1] |  | non-binding peptide | 
APAFPPPSPP [TOP1] | positive interaction | binding peptide | 
MGAGAPAFPPPSPP@EF-(GFP)-His6 [TOP1-DOPA-GFP] |  |  | lowest limit of detection of SH3-His (Abl SH3 domain (SH3-His)): about 0.5 μg
APAFPPPSPP (also: FITC label, position not given here) [TOP1-FITC] |  |  | Kd (SH3-His): 16 ± 1 µM
